Source: ChEMBL document CHEMBL1151095, “Anti-human immunodeficiency virus type-1 (HIV-1) and anti-hepatitis B virus (HBV) activities of (2,3-dideoxy-2-fluoro--L-threo-pentofuranosyl)nucleosides” (Bioorg Med Chem Lett, 1995)

Legend:
[1] = Cytotoxicity in human peripheral blood mononuclear (PBM) cells; format: functional, cell-based
[2] = In vitro anti-HIV activity was evaluated in human peripheral blood mononuclear (PBM) cells; format: functional
Homo sapiens [3] = species on record: Homo sapiens; assay: In vitro anti-HBV activity in 2.2.15 cells; format: functional, cell-based; details: HepG2 2.2.15
Vero = assay: Cytotoxicity in Vero cells; format: functional, cell-based; details: Chlorocebus sabaeus
CCRF-CEM = assay: Cytotoxicity in CEM cells; format: functional, cell-based; details: Homo sapiens
Homo sapiens [4] = species on record: Homo sapiens; assay: Cytotoxicity in 2.2.15 cells; format: functional, cell-based; details: HepG2 2.2.15

Structure (SMILES) | IC50 [1] [µM] | EC50 [2] [µM] | EC50 (Homo sapiens [3]) [µM] | IC50 (Vero) [µM] | IC50 (CCRF-CEM) [µM] | IC50 (Homo sapiens [4]) [µM]
Cc1cn([C@H]2C[C@H](N=[N+]=[N-])[C@@H](CO)O2)c(=O)[nH]c1=O [ZIDOVUDINE] | > 100 | 0.004 |  |  |  | 
Nc1ncnc2c1ncn2[C@@H]1O[C@H](CO)C[C@@H]1F [LODENOSINE] | > 100 | 100 | > 10 | > 100 | > 100 | > 200
Nc1ccn([C@@H]2O[C@H](CO)C[C@@H]2F)c(=O)n1 | > 100 | 16.2 | 4 | > 100 | > 100 | > 200
